pKi: −log10 of the molar value.
What was measured:
[1] = molecular target: Adenosine receptor A2a (Rattus norvegicus, UniProt P30543)
Description: Displacement of [3H]MSX-2 from adenosine A2A receptor in rat brain striatal membrane after 30 mins by scintillation counting

[2] = molecular target: T1, Adenosine receptor A1 (Rattus norvegicus, UniProt P25099)
T1 sequence (P25099 whole entry): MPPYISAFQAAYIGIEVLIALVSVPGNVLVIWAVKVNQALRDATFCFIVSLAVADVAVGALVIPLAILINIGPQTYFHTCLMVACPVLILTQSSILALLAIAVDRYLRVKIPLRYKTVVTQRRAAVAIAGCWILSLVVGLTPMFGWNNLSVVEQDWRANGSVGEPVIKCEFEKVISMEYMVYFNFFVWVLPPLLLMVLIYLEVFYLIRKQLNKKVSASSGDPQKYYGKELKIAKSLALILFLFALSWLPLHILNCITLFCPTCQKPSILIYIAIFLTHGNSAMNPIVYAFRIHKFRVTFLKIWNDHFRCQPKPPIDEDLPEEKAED
Description: Displacement of [3H]CCPA from adenosine A1 receptor in rat brain cortical membrane after 90 mins by scintillation counting

Sequence of Adenosine receptor A2a (P30543 whole entry): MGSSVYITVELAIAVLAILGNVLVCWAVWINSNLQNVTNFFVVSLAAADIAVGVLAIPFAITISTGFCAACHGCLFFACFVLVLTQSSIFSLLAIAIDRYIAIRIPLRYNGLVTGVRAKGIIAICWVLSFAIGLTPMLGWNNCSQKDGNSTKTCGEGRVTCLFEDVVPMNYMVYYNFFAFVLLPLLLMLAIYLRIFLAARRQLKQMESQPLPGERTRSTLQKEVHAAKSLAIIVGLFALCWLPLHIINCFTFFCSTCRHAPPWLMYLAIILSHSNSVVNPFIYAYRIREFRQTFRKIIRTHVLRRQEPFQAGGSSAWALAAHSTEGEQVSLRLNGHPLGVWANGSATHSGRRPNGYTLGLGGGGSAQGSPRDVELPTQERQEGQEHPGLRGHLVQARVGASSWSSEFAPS

| pKi [2] | Compound | pKi [1] |
| --- | --- | --- |
|  | C#CCOc1nc(-c2ccccc2)nc2sc3c(c12)CCCC3 | 8.52 |
|  | C#CCn1c(C)nc2sc3c(c2c1=O)CCCC3 | 8.15 |
| 8.22 | C#CCn1c(C)nc2sc(C)c(C)c2c1=O | 5.42 |
|  | C#CCn1c(-c2ccccc2)nc2sc(C)c(C)c2c1=O | 7.54 |
| 8.30 | C#CCn1c(-c2ccccc2)nc2sc3c(c2c1=O)CCC3 | 5.01 |
| 8.40 | C#CCn1c(Cc2ccc(F)cc2)nc2sc(C)c(C)c2c1=O | 5.12 |

| Compound | pKi [2] | pKi [1] |
| --- | --- | --- |
| C#CCn1c(C)nc2sc3c(c2c1=O)CCC3 | 8.22 | 7.74 |
| C#CCn1c(Cc2ccc(F)cc2)nc2sc3c(c2c1=O)CCCC3 | 7.68 | 7.85 |
